Results as given in US20240252677A1, “ONE-COMPONENT DELIVERY SYSTEM FOR NUCLEIC ACIDS” (The Trustees of the University of Pennsylvania, priority 2021, published 2024).
One block for each compound: values may come before it.

How the values were obtained:
BALB/c mice = assay: In vivo mRNA delivery in mice with DNPs, whole-body bioluminescence imaging (IVIS)
[1] = Dimensions (size, PDI) of DNPs co-assembled from IAJDs and Luc-mRNA by DLS; type: physicochemical
Method in brief: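 IAJDs (80 mg/mL ethanol stock) rapidly injected into Luc-mRNA (4.0 mg/mL stock) diluted in 10 mM acetate buffer pH 4.0, then vortexed 5 s. Size and polydispersity of resulting DNPs measured by DLS (633 nm laser, 175° detection) at 23 °C.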

liver = assay: In vivo mRNA delivery, IVIS imaging of organs: liver; parameters: species or system mice; key to Organs with luminescence: liver: strong: Strong meant the luminescence intensity in that organ was relatively high, compared to other organs; weak: Weak meant the luminescence intensity in that organ was relatively low, compared to other organs; conditions: for Organs with luminescence: liver: Table 17, mice, IVIS, 4-6 h after injection, intensity relative to other organs; for Organs with luminescence: liver (weak/strong): Table 14, imaging 6 h after injection
[2] = Table 16, DNPs from IAJD 4 mg/mL and Luc-mRNA 0.10 mg/mL by injection in acetate buffer (10 mM, pH 4.0)
[3] = Table 17, DNPs used in vivo, IAJD 4 mg/mL, Luc-mRNA 0.10 mg/mL, acetate pH 4.0
[4] = Table 12, DNPs, IAJD 4 mg/mL + Luc-mRNA 0.10 mg/mL, acetate buffer 10 mM pH 4.0
[5] = Table 13, DNPs, IAJD 4 mg/mL + Luc-mRNA 0.10 mg/mL, acetate buffer pH 4.0
[6] = Table 14, DNPs, IAJD 4 mg/mL + Luc-mRNA 0.10 mg/mL, acetate buffer pH 4.0

Structure (SMILES): CCCCCCCCCCCCCCCOc1cc(COC(=O)CCCN2CCN(CCO)CC2)cc(OCCCCCCCCCCC)c1 [IAJD 119, 3-(Pentadecyloxy)-5-(undecyloxy)benzyl 4-(4-(2-hydroxyethyl)piperazin-1-yl)butanoate]
In vivo activity (total flux, p/s) (BALB/c mice; Table 19, nonsymmetric IAJDs): 8.22 × 10^7 p/s | PDI [1, 2]: 0.459 | Size (d, nm) [1, 2]: 163 nm | PDI [1, 3]: 0.459 | Size (d, nm) [1, 3]: 163 nm | Organs with luminescence: liver (liver): liver (weak),

Structure (SMILES): CCCCCCCCCCCCCCCCCCOc1cc(COC(=O)CCCN2CCN(C)CC2)cc(OCCCCCCCCCCCC)c1 [IAJD 107, 3-(Dodecyloxy)-5-(octadecyloxy)benzyl 4-(4-methylpiperazin-1-yl)butanoate]
In vivo activity (total flux, p/s) (BALB/c mice; Table 19, nonsymmetric IAJDs): 2.19 × 10^7 p/s | PDI [1, 4]: 0.279 | Size (d, nm) [1, 4]: 146 nm | PDI [1, 5]: 0.279 | Size (d, nm) [1, 5]: 146 nm | PDI [1, 6]: 0.279 | Size (d, nm) [1, 6]: 146 nm | PDI [1, 3]: 0.279 | Size (d, nm) [1, 3]: 146 nm | Organs with luminescence: liver (weak/strong) (liver): liver (weak), | Organs with luminescence: liver (liver): liver (weak),

Structure (SMILES): CCCCCCCCCCCCCCCCOc1cc(COC(=O)CCCN2CCN(C)CC2)cc(OCCCCCCCCCCCCCCC)c1 [IAJD 149, 3-(Hexadecyloxy)-5-(pentadecyloxy)benzyl 4-(4-methylpiperazin-1-yl)butanoate]
In vivo activity (total flux, p/s) (BALB/c mice; Table 19, nonsymmetric IAJDs): 2.26 × 10^7 p/s | PDI [1, 2]: 0.304 | Size (d, nm) [1, 2]: 193 nm | PDI [1, 3]: 0.304 | Size (d, nm) [1, 3]: 193 nm | Organs with luminescence: liver (liver): liver (weak),

Structure (SMILES): CCCCCCCCCCCCCCCOc1cc(COC(=O)CCCN2CCN(CCO)CC2)cc(OCCCCCCCCCC)c1 [IAJD 142, 3-(Decyloxy)-5-(pentadecyloxy)benzyl 4-(4-(2-hydroxyethyl)piperazin-1-yl)butanoate]
In vivo activity (total flux, p/s) (BALB/c mice; Table 19, nonsymmetric IAJDs): 2.51 × 10^7 p/s | PDI [1, 2]: 0.293 | Size (d, nm) [1, 2]: 230 nm | PDI [1, 3]: 0.293 | Size (d, nm) [1, 3]: 230 nm | Organs with luminescence: liver (liver): liver (strong),

Structure (SMILES): CCCCCCCCCCCCCCCOc1cc(COC(=O)CCCN2CCN(C)CC2)cc(OCCCCCCCCCCCCC)c1 [IAJD 145, 3-(pentadecyloxy)-5-(tridecyloxy)benzyl 4-(4-methylpiperazin-1-yl)butanoate]
In vivo activity (total flux, p/s) (BALB/c mice; Table 19, nonsymmetric IAJDs): 9.25 × 10^6 p/s | PDI [1, 2]: 0.306 | Size (d, nm) [1, 2]: 194 nm | PDI [1, 3]: 0.306 | Size (d, nm) [1, 3]: 194 nm | Organs with luminescence: liver (liver): liver (weak),

Structure (SMILES): CCCCCCCCCCCCCCCOc1cc(COC(=O)CCCN2CCN(CCO)CC2)cc(OCCCCCCCCCCCCCC)c1 [IAJD 148, 3-(Pentadecyloxy)-5-(tetradecyloxy)benzyl 4-(4-(2-hydroxyethyl)piperazin-1-yl)butanoate]
In vivo activity (total flux, p/s) (BALB/c mice; Table 19, nonsymmetric IAJDs): 6.33 × 10^7 p/s | PDI [1, 2]: 0.339 | Size (d, nm) [1, 2]: 363 nm | PDI [1, 3]: 0.339 | Size (d, nm) [1, 3]: 363 nm | Organs with luminescence: liver (liver): liver (weak),

Structure (SMILES): CCCCCCCCCCCCCOc1cc(COC(=O)CCCN2CCN(C)CC2)cc(OCCCCCCCCCCC)c1 [IAJD 116, 3-(Tridecyloxy)-5-(undecyloxy)benzyl 4-(4-methylpiperazin-1-yl)butanoate]
In vivo activity (total flux, p/s) (BALB/c mice; Table 19, nonsymmetric IAJDs): 2.38 × 10^7 p/s | PDI [1, 2]: 0.264 | Size (d, nm) [1, 2]: 150 nm | PDI [1, 3]: 0.264 | Size (d, nm) [1, 3]: 150 nm | Organs with luminescence: liver (liver): liver (weak),

More lines, main results first:

PDI [1, 4]: 0.275 | Size (d, nm) [1, 4]: 105 nm | PDI [1, 5]: 0.275 | Size (d, nm) [1, 5]: 105 nm | PDI [1, 6]: 0.275 | Size (d, nm) [1, 6]: 105 nm | PDI [1, 3]: 0.275 | Size (d, nm) [1, 3]: 105 nm
Structure (SMILES): CCCCCCCCCCCCCCCCOc1cc(COC(=O)CCCN2CCN(C)CC2)cc(OCCCCCCCCCCCC)c1 [IAJD 106, 3-(Dodecyloxy)-5-(hexadecyloxy)benzyl 4-(4-methylpiperazin-1-yl)butanoate]
In vivo activity (total flux, p/s) (BALB/c mice; Table 19, nonsymmetric IAJDs): 3.48 × 10^7 p/s | Organs with luminescence: liver (weak/strong) (liver): liver (weak), | Organs with luminescence: liver (liver): liver (weak),

PDI [1, 2]: 0.216 | Size (d, nm) [1, 2]: 287 nm | PDI [1, 3]: 0.216 | Size (d, nm) [1, 3]: 287 nm
Structure (SMILES): CCCCCCCCCCCCCCCCCOc1cc(COC(=O)CCCN2CCN(C)CC2)cc(OCCCCCCCCCCCCCCC)c1 [IAJD 151, 3-(Heptadecyloxy)-5-(pentadecyloxy)benzyl 4-(4-methylpiperazin-1-yl)butanoate]
In vivo activity (total flux, p/s) (BALB/c mice; Table 19, nonsymmetric IAJDs): 3.12 × 10^7 p/s | Organs with luminescence: liver (liver): liver (weak),

PDI [1, 2]: 0.270 | Size (d, nm) [1, 2]: 276 nm | PDI [1, 3]: 0.270 | Size (d, nm) [1, 3]: 276 nm
Structure (SMILES): CCCCCCCCCCCCCCCCCOc1cc(COC(=O)CCCN2CCN(CCO)CC2)cc(OCCCCCCCCCCC)c1 [IAJD 127, 3-(Heptadecyloxy)-5-(undecyloxy)benzyl 4-(4-(2-hydroxyethyl)piperazin-1-yl)butanoate]
In vivo activity (total flux, p/s) (BALB/c mice; Table 19, nonsymmetric IAJDs): 1.07 × 10^8 p/s | Organs with luminescence: liver (liver): liver (weak),

PDI [1, 2]: 0.238 | Size (d, nm) [1, 2]: 232 nm | PDI [1, 3]: 0.238 | Size (d, nm) [1, 3]: 232 nm
Structure (SMILES): CCCCCCCCCCCCCCCCCCOc1cc(COC(=O)CCCN2CCN(C)CC2)cc(OCCCCCCCCCCCCCCC)c1 [IAJD 153, 3-(Octadecyloxy)-5-(pentadecyloxy)benzyl 4-(4-methylpiperazin-1-yl)butanoate]
In vivo activity (total flux, p/s) (BALB/c mice; Table 19, nonsymmetric IAJDs): 7.33 × 10^7 p/s | In vivo activity (total flux, p/s) (BALB/c mice; Table 20, nonsymmetric IAJDs and MC3-Luc-mRNA): 7.33 × 10^7 p/s | Organs with luminescence: liver (liver): liver (strong),
